Data from publication PMC3914206.

Legend:
Experiment in all cases: KiNativ chemical proteomics profiling in HeLa and PC3 cell lysates
Assay type in all cases: binding
[1] = target: T1, selected panels of kinases in HeLa and PC3 cell lysates (Homo sapiens, UniProt O15530); conditions: 10 uM; PDK1; peptide EYAIkILEK; proteome PC3; labeling site Lys1
T1 construct: endogenous in cells; host or cells: HeLa and PC3 cell lysates

[2] = target: T2, selected panels of kinases in HeLa and PC3 cell lysates (Homo sapiens, UniProt O75582); conditions: 10 uM; proteome HEL; peptide DIk[…]; labeling site Lys2
T2 construct: endogenous in cells; host or cells: HeLa and PC3 cell lysates

[3] = target: T3, selected panels of kinases in HeLa and PC3 cell lysates (Homo sapiens, UniProt O96017); conditions: 10 uM
T3 construct: endogenous in cells; host or cells: HeLa and PC3 cell lysates

[4] = target: T4, selected panels of kinases in HeLa and PC3 cell lysates (Homo sapiens, UniProt P08581); conditions: 10 uM, proteome PC3, labeling site Activation Loop
T4 construct: endogenous in cells; host or cells: HeLa and PC3 cell lysates

[5] = target: T5, selected panels of kinases in HeLa and PC3 cell lysates (Homo sapiens, UniProt P15056); conditions: 10 uM; proteome HEL; peptide DLk[…]; labeling site Lys2
T5 construct: endogenous in cells; host or cells: HeLa and PC3 cell lysates

[6] = target: T6, selected panels of kinases in HeLa and PC3 cell lysates (Homo sapiens, UniProt P41743); conditions: 10 uM; PKCi; peptide IYAMkVVK; proteome HEL; labeling site Lys1
T6 construct: endogenous in cells; host or cells: HeLa and PC3 cell lysates

[7] = target: T7, selected panels of kinases in HeLa and PC3 cell lysates (Homo sapiens, UniProt P43405); conditions: 10 uM; SYK; peptide ISDFGLSkALR; proteome HEL; labeling site Activation Loop
T7 construct: endogenous in cells; host or cells: HeLa and PC3 cell lysates

[8] = target: T8, selected panels of kinases in HeLa and PC3 cell lysates (Homo sapiens, UniProt P46734); conditions: 10 uM, peptide DVkPSNVLINK, labeling site Lys2
T8 construct: endogenous in cells; host or cells: HeLa and PC3 cell lysates
T8 sequence (P46734 1-347): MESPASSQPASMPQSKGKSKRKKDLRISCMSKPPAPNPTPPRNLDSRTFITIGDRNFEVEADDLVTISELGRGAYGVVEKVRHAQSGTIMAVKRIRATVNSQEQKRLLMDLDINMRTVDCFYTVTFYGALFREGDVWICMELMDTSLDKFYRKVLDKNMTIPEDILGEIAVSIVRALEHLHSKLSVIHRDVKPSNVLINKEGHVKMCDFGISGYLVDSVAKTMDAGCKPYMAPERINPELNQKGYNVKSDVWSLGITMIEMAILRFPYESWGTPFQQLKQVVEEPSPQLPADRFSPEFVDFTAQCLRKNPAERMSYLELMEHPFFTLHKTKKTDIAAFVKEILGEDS

[9] = target: T9, selected panels of kinases in HeLa and PC3 cell lysates (Homo sapiens, UniProt P52564); conditions: 10 uM
T9 construct: endogenous in cells; host or cells: HeLa and PC3 cell lysates
T9 sequence (P52564 1-334): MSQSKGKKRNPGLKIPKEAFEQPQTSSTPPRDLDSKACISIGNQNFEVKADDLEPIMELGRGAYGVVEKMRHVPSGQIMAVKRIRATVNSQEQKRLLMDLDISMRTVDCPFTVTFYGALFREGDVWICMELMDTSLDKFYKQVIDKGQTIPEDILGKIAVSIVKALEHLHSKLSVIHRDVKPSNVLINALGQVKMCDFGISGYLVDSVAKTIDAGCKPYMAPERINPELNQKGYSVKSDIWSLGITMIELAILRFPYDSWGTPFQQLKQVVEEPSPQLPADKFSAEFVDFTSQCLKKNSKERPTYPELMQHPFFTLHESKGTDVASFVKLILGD

[10] = target: T10, selected panels of kinases in HeLa and PC3 cell lysates (Homo sapiens, UniProt Q15831); conditions: 10 uM, peptide DIk[…], labeling site Lys2
T10 construct: endogenous in cells; host or cells: HeLa and PC3 cell lysates
T10 sequence (Q15831 1-433): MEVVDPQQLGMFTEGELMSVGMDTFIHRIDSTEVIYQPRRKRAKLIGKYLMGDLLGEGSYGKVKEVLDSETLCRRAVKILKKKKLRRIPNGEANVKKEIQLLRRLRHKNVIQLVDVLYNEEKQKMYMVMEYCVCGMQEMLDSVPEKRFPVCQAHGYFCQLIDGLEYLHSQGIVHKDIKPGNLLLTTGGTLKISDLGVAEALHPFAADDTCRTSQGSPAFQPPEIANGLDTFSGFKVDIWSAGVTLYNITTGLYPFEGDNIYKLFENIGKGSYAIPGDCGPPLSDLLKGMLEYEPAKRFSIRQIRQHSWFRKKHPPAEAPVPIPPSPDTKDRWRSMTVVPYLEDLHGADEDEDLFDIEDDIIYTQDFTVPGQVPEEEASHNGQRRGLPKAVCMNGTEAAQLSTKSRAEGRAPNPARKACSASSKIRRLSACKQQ

[11] = target: T11, selected panels of kinases in HeLa and PC3 cell lysates (Homo sapiens, UniProt Q16539); conditions: 10 uM
T11 construct: endogenous in cells; host or cells: HeLa and PC3 cell lysates

[12] = target: T12, selected panels of kinases in HeLa and PC3 cell lysates (Homo sapiens, UniProt Q16584); conditions: 10 uM, peptide DLk[…], labeling site Lys2
T12 construct: endogenous in cells; host or cells: HeLa and PC3 cell lysates

[13] = target: T13, selected panels of kinases in HeLa and PC3 cell lysates (Homo sapiens, UniProt Q96Q15); conditions: 10 uM; SMG1; peptide […]kTKPK; proteome HEL; labeling site ATP
T13 construct: endogenous in cells; host or cells: HeLa and PC3 cell lysates

[14] = proteome HEL, peptide DLk[…], labeling site Lys2
[15] = proteome PC3, peptide DLk[…], labeling site Lys2
[16] = proteome PC3, peptide VAIkIISK, labeling site Lys1
[17] = proteome HEL, peptide DVk[…], labeling site Lys2
[18] = proteome PC3, peptide DVk[…], labeling site Lys2
[19] = proteome PC3, peptide […]kR, labeling site Lys1
[20] = proteome HEL, peptide QELNkTIWEVPER, labeling site Other
[21] = proteome PC3, peptide QELNkTIWEVPER, labeling site Other

T12 sequence (Q16584 whole entry): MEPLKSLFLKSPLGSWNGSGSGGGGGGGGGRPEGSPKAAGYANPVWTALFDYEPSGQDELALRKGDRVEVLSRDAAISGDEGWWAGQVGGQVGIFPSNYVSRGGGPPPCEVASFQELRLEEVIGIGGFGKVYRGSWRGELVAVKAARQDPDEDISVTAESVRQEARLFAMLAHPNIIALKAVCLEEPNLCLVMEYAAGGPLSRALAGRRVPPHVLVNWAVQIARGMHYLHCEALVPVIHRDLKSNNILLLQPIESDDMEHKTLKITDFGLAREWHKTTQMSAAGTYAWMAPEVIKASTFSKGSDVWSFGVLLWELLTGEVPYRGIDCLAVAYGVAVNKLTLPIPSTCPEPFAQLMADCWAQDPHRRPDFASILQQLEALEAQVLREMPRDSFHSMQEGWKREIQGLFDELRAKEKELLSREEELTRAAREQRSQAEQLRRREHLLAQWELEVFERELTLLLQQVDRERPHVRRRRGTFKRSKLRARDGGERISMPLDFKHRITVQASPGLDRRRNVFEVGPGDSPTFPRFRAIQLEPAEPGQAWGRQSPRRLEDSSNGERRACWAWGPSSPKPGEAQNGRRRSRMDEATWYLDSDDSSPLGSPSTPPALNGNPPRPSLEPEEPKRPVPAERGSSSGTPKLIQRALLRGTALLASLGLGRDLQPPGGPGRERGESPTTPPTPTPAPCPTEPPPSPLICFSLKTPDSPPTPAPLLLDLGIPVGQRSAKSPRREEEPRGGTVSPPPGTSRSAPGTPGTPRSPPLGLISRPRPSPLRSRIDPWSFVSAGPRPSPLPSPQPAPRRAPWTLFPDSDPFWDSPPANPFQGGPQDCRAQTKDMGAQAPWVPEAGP
T4 sequence (P08581 25-1390): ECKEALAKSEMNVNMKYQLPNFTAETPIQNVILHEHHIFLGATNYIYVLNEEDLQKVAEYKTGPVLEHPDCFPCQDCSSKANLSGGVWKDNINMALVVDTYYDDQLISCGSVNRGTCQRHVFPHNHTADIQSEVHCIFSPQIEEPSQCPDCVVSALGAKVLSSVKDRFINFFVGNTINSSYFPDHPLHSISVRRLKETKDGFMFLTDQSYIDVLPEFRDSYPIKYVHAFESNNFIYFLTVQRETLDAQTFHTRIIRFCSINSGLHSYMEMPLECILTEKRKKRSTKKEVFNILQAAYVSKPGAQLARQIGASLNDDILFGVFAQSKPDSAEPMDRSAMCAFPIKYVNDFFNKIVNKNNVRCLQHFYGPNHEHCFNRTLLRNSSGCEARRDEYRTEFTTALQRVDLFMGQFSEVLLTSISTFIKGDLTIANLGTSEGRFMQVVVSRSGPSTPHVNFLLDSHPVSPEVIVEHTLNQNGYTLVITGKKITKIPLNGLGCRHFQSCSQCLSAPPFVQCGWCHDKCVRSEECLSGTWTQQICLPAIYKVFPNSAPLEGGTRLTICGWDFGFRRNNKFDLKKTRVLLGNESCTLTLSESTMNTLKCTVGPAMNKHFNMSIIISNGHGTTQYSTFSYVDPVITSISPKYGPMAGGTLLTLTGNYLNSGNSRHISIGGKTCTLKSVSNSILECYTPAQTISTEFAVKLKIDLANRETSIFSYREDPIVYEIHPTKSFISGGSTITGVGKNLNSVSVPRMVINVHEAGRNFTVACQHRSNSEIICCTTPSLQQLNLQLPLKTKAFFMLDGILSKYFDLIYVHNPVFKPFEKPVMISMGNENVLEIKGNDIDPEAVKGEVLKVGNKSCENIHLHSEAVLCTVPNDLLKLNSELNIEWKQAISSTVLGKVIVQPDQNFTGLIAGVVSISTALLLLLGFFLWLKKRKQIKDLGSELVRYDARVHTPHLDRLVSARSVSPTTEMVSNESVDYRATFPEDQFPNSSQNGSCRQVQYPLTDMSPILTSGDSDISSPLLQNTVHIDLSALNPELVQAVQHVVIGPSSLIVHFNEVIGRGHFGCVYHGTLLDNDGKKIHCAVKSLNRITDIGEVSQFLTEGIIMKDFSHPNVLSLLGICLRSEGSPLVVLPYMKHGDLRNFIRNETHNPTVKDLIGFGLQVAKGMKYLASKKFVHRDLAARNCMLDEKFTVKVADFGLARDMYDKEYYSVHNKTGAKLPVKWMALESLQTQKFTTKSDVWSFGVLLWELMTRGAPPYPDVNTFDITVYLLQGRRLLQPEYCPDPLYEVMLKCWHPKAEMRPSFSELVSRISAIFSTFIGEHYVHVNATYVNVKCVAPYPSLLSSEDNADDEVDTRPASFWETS
T3 sequence (O96017 whole entry): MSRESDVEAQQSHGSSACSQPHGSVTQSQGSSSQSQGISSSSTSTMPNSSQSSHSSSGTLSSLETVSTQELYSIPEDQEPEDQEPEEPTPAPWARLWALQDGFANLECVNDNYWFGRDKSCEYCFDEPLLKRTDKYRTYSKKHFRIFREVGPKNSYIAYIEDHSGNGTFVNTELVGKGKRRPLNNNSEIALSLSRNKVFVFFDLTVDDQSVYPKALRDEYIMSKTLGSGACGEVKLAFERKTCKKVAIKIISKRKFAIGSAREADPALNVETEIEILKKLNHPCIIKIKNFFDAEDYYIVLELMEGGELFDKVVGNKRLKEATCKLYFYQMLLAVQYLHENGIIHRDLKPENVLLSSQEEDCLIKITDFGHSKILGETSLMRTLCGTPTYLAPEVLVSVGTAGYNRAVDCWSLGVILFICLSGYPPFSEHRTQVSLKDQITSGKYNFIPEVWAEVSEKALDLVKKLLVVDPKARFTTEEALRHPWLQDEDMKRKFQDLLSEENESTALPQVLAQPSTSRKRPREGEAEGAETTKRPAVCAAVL
T11 sequence (Q16539 whole entry): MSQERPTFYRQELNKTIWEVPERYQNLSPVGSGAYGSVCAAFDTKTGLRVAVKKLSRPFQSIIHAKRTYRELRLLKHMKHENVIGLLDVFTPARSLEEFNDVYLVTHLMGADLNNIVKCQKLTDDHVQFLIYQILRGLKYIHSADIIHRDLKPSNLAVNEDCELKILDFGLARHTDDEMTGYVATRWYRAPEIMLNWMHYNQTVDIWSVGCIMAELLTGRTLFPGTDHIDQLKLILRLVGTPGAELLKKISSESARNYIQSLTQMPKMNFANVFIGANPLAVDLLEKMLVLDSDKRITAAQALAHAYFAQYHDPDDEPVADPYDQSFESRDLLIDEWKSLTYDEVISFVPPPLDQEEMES
T2 sequence (O75582 whole entry): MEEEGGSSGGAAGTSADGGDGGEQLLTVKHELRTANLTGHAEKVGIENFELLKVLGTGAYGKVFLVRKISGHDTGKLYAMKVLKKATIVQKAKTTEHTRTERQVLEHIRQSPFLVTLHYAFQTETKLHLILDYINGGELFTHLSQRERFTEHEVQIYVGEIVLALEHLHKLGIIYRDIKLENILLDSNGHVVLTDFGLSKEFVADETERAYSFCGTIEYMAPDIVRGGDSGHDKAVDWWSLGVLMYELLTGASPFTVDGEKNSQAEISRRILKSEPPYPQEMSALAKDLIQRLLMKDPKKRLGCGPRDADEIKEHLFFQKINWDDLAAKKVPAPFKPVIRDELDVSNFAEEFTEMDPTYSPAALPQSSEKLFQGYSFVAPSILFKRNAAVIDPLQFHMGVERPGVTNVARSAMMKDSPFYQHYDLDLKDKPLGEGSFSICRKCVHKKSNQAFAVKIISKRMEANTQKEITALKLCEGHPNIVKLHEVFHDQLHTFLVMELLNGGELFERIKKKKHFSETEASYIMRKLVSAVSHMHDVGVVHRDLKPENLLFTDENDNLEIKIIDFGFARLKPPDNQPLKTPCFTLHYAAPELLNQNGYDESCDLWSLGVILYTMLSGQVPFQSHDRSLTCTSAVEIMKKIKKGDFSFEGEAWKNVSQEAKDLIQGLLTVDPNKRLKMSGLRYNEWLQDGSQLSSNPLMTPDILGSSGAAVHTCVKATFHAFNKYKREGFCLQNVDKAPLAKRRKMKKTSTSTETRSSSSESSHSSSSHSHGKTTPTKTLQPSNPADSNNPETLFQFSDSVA
T1 sequence (O15530 whole entry): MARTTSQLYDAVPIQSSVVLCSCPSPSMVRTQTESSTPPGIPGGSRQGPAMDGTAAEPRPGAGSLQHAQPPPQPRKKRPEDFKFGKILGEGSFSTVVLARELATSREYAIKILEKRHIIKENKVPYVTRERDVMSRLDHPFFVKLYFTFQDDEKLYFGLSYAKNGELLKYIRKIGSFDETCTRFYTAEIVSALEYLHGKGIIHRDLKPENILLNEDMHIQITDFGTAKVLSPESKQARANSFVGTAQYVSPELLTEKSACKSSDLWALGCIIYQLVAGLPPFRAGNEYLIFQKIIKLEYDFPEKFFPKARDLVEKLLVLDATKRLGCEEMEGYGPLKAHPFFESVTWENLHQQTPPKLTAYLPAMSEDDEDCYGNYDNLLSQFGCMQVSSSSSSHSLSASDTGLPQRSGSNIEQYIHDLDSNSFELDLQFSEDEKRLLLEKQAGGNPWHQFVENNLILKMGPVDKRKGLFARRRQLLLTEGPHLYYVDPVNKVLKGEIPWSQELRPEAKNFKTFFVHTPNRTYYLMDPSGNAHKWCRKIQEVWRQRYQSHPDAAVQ
T6 sequence (P41743 whole entry): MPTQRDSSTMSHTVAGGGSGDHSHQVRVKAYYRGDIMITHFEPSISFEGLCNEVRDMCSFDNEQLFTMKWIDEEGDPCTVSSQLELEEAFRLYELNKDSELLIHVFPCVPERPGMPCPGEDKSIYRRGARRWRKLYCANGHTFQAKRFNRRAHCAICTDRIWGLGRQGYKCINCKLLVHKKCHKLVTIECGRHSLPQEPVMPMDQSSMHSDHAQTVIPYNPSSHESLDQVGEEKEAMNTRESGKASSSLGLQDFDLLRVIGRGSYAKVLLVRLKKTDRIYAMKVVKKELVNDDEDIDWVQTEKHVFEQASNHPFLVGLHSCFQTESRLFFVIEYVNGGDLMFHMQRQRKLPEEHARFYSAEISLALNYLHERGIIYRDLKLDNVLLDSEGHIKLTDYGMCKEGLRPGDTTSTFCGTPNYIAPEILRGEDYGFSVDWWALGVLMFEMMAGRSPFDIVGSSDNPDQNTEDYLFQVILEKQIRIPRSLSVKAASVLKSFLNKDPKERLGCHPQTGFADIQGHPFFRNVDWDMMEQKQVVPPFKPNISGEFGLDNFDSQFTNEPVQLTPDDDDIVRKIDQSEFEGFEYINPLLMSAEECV

SMILES	% Inhibition PDK1 [1] [%]	% Inhibiton, MSK1 domain1 [2] [%]	% Inhibiton, CHK2 [3, 14] [%]	% Inhibiton, CHK2 [3, 15] [%]	% Inhibiton, CHK2 [3, 16] [%]	% Inhibiton, MET ([4]; peptide DMYDkEYYSVHNK) [%]	% Inhibiton, MET ([4]; peptide […]kTGAK) [%]	% Inhibiton, BRAF [5] [%]	% Inhibition PKCi [6] [%]	% Inhibition SYK [7] [%]	% Inhibiton, MAP2K3 ([8]; proteome HEL) [%]	% Inhibiton, MAP2K3 ([8]; proteome PC3) [%]	% Inhibiton, MAP2K6 [9, 17] [%]	% Inhibiton, MAP2K6 [9, 18] [%]	% Inhibiton, MAP2K6 [9, 19] [%]	% Inhibiton, LKB1 ([10]; proteome HEL) [%]	% Inhibiton, LKB1 ([10]; proteome PC3) [%]	% Inhibiton, p38a [11, 14] [%]	% Inhibiton, p38a [11, 20] [%]	% Inhibiton, p38a [11, 15] [%]	further results
COc1cc(C(=O)N2CCC(N3CCN(C)CC3)CC2)ccc1Nc1ncc2c(n1)N(C1CCCC1)c1ccccc1C(=O)N2C [Compound 25, 11-cyclopentyl-2-((2-methoxy-4-(4-(4-methylpiperazin-1-yl)piperidine-1-carbonyl)phenyl)amino)-5-methyl-5H-benzo[e]pyrimido[5,4-b][1,4]diazepin-6(11H)-one]	-5.4	26.7	15.6	0.0283	11.3	-15.9	4.8	-0.2	13.3	5.7	11.8	-7.0	14.2	-3.9	12.8	-0.266	-4.1	6.5	12.6	42.4	% Inhibiton, p38a [11, 21]: -7.5%; % Inhibiton, MLK3 ([12]; proteome HEL): 3.1%; % Inhibiton, MLK3 ([12]; proteome PC3): 4.4%; % Inhibition SMG1 [13]: -21.0%
CCOc1cc(C(=O)N2CCC(N3CCN(C)CC3)CC2)ccc1Nc1ncc2c(n1)N(C1CCCC1)c1ccccc1C(=O)N2C [Compound 26]	0	~70.5	-18.8	14.1	4.6	-12.7	9.2	8.6	-2.8	-0.8	10.9	0.8	-4.3	-9.9	-2.3	6.4	-0.8	-7.3	55	4.6	% Inhibiton, p38a [11, 21]: -19%; % Inhibiton, MLK3 ([12]; proteome HEL): -12.1%; % Inhibiton, MLK3 ([12]; proteome PC3): 11.9%; % Inhibition SMG1 [13]: -4.8%
